Results: patent US9809621B2, “Stable peptide-based PACE4 inhibitors” (SOCPRA SCIENCES SANTÉ ET HUMAINES S.E.C., priority 2011, dated 2017)
Numbered stars: 1 amine (or outer) side, 2 acyl side, 3 side chain; on linkers, the order of the positions; unused ones are H or OH. Square brackets hold non-standard residues; d marks the D form. Peptide text beside a SMILES is read from it. * marks the point of attachment. NH(4-amidinobenzyl) = N=C(N)c1ccc(CN*)cc1; X1 = CC(C)CN(CC(=O)[*:2])N[*:1]; X2 = N=C(N)NC/C=C/CN*

What was measured:
[1] = target: T1, PACE4 (Homo sapiens, UniProt P29122); experiment: Inhibition constant (Ki) for PACE4; format: biochemical; conditions: read-out: Ki for PACE4
T1 sequence (P29122 150-969): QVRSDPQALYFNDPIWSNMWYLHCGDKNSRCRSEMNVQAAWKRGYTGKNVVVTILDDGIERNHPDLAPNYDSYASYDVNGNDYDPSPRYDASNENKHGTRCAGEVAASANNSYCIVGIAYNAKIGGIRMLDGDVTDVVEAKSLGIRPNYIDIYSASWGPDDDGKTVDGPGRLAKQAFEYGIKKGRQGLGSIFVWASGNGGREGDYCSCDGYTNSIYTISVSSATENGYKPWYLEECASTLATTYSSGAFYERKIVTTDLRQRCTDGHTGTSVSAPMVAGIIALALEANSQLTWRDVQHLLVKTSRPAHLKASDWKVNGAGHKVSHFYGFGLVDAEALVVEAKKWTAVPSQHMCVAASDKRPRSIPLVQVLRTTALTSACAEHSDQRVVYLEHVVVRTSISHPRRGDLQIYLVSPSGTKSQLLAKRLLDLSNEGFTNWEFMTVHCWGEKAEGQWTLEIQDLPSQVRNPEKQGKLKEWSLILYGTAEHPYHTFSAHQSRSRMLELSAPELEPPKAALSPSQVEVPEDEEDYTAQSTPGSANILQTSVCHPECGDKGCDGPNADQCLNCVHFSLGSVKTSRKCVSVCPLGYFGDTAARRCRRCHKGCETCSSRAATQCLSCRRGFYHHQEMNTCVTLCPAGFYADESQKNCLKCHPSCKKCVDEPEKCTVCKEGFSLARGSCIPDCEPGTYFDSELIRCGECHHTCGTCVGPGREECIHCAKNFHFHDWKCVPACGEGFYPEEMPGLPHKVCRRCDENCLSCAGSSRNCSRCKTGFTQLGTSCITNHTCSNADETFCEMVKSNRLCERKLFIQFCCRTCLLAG

[2] = target: furin (Homo sapiens, UniProt P09958); experiment: Inhibition constant (Ki) for furin; format: biochemical; conditions: read-out: Ki for furin
Sequence of furin (P09958 108-794): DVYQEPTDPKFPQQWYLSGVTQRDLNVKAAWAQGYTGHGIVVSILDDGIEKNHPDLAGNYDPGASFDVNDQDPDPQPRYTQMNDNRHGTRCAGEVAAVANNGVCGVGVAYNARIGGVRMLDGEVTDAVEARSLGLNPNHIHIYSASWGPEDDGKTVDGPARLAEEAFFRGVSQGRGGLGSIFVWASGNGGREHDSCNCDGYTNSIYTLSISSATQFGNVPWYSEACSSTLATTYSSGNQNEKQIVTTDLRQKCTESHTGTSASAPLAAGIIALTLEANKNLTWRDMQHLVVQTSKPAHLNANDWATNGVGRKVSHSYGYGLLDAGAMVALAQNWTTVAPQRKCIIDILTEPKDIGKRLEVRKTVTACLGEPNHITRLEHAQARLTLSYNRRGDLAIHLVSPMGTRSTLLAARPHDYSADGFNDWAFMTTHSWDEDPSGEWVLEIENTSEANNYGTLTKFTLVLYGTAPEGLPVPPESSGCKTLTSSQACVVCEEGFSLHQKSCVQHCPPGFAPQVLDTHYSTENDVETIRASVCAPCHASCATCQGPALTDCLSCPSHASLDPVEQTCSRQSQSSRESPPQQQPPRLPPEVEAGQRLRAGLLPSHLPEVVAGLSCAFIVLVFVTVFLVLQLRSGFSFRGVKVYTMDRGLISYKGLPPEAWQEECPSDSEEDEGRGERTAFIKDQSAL

[3] = test system: DU145 cells; conditions: MTT; for Anti-proliferative activity in DU145 cells (in words): FIG. 1C, FIG. 7
[4] = test system: LNCaP cells; conditions: MTT
[5] = Plasmatic half-life / degradation by plasmatic protease; format: in vitro ADME; conditions: plasma
Protocol: Multiple multi-Leu variants described in Table 1 were tested for their stability following incubation with DU145 cells, wherein their cellular stability and plasmatic half-life was measured.
Stabilisation strategy for multi-Leu variants was also assessed in presence of plasmatic protease. 8 variants protected at their N-terminal leucines were tested in order to establish their level of degradation since it is expected that N-terminal degradation will occur in absence of any modifications other than acetylation. Variants tested with azaβ3-leucine at each individual position and “click” bonds between the different leucines of the N-terminal part of the variants were protected against degradation (see FIG. 3 for modifications).

[6] = test system: LNCaP tumors; experiment: Intratumoral treatment of LNCaP tumors in immunosuppressed mice

SMILES	Ki [1] [µM]	Ki [2] [µM]	Anti-proliferative activity in DU145 cells (in words) [3]	IC50 ([3]; read-out: IC50 cellular proliferation DU145, FIG. 1B/1C) [µM]	Anti-proliferative activity in LNCaP cells (in words) ([4]; FIG. 1D)	IC50 ([4]; read-out: IC50 cellular proliferation LNCaP, FIG. 1B/1D) [µM]	half-life ([5]; Table 1) [h]	half-life ([5]; Table 2) [h]	Plasmatic concentration of PSA (in words) ([6]; LNCaP tumors, FIG. 9)	Appearance of excised tumors (in words) ([6]; excised LNCaP tumors, FIG. 10A)	Level of p27KIP in excised tumors (in words) ([6]; immunocytochemistry, vs ML-peptide treated and untreated tumors, FIG. 10B)	Level of Ki67 in excised tumors (in words) ([6]; immunocytochemistry, vs ML-peptide treated and untreated tumors, FIG. 10C)	Tumor volume (in words) ([6]; intratumorally 50 μg/48 h, LNCaP tumors, immunosuppressed mice, FIG. 8)
CC(=O)N[C@@H](CC(C)C)C(=O)N[C@@H](CC(C)C)C(=O)N[C@@H](CC(C)C)C(=O)N[C@@H](CC(C)C)C(=O)N[C@@H](CCCNC(=N)N)C(=O)N[C@H](C(=O)N[C@@H](CCCCN)C(=O)N[C@H](CCCNC(=N)N)C(N)=O)C(C)C [Ac-LLLLRVK-[DArg]-NH2] (Ac-LLLLRVK[dR]-NH2)	1.38	2.6	poorly	439 ± 82	poorly	389 ± 12	–	–	–	–	–	–	–
CC(=O)NN(CC(=O)N[C@@H](CC(C)C)C(=O)N[C@@H](CC(C)C)C(=O)N[C@@H](CC(C)C)C(=O)N[C@@H](CCCNC(=N)N)C(=O)N[C@H](C(=O)N[C@@H](CCCCN)C(=O)NC/C=C/CNC(=N)N)C(C)C)CC(C)C [[Azaβ3L]^P8-ML-[ΔR-CO2]^P1, Ac-[Azaβ3L]LLLRVKR-[ΔR-COO]] (Ac-[X1]LLLRVK-X2)	–	–	IC50 lower than the IC50 of the multi-Leu control	–	–	–	5.67 ± 0.07	5.67 ± 0.07	–	–	–	–	–
CC(=O)N[C@H](CC(C)C)C(=O)N[C@@H](CC(C)C)C(=O)N[C@@H](CC(C)C)C(=O)N[C@@H](CC(C)C)C(=O)N[C@@H](CCCNC(=N)N)C(=O)N[C@H](C(=O)N[C@@H](CCCCN)C(=O)NCc1ccc(C(=N)N)cc1)C(C)C [[D-Leu]^P8-ML-[AMBA]^P1, Ac-[D-Leu]-LLLRVK-[AMBA]] (Ac-[dL]LLLRVK-{NH(4-amidinobenzyl)})	–	–	–	–	–	–	11.3	11.3	decreased	smaller and have a white appearance	increased	decreased	consistently the more potent compound
